# Measurements from US5665330A, “Dual purposed diagnostic/therapeutic agent having a tri-iodinated benzoyl group linked to a coumarin” (Nano Systems LLC, priority 1995, dated 1997).
# Where two headings read alike, the source gives them in different places.
# Key:
# [1] = average particle size of roller-milled nanoparticle suspension (light scattering / PCS); assay type: physicochemical
# Method: (§1) 0.75 g of WIN 67591, as prepared in Example 1, was added to approximately 30 ml of 1.1 mm zirconium oxide beads and 10 ml of a solution which was 2% Tetronic 908 (wt/vol %) and 1% SA9OHCO (wt/vol %). SA9OHCO is a small sugar surfactant. The suspension was roller milled in a 60 ml jar at approximately 100 rpm for 7 days. At the end of this time, the average particle size was determined to be 192 nm by light scattering using a Zetasizer III. The suspension was removed from the beads and sent for subcutaneous injection as a lymphographic agent. CT imaging was carried out using a GE Model 9800 Instrument.
# (§2) 2.85 g of WIN 67591 (19.2%) were added to 30 ml of a solution of 5.2% BASF NF Grade Tetronic 908 (wt/vol %) in sterilized distilled water and approximately 100 ml of 1.1 mm zirconium silicate beads in a 250 ml bottle. The bottle was capped and rolled at approximately 140 rpm for 7 days at which time the average particle size was determined to be 173 nm. The suspension was separated from the beads and sent for intravenous injection as a vascular x-ray contrast agent. New Zealand White rabbits were used for this study and were injected via the ear vein at a dose of 3 ml/kg. Three animals were studied for times 5, 15, 30, 60, 120 min. and 24 hours. CT scanning was carried out using a Toshiba Model TCT-900S/x at the times indicated.
# (§3) […] as prepared in Example 1 at 5% W/V was formulated with 3% Tyloxapol by roller milling for ten days following the procedures similar to that of work example 3 and 4. The average particle size by PCS was 302 nm. The formulation was administered i.v. to colon 33 bearing mice at 0.2 ml/animal. […] As high as 700 ug (0.7% of the total dosage) WIN 67591 remained circulating in the blood 1 hour post injection. WIN 67591 was detected in the tumor tissue as early as 5 minute post injection. The drug concentration reached a maximum at 90 ug/g of tumor tissue at 6 hour post injection and maintained at a concentration of 60 ug/g in the tumor tissue for 48 hours.
# [2] = water solubility; assay type: physicochemical
# Method: Despite the high water solubility of sodium ditriazoate and sodium methoxy coumarin (>1 mg/ml), WIN 67638 and WIN 67591 are sparingly soluble in water with solubility less than 0.01 mg/mL.
# By water soluble is meant greater than 1 mg/ml.
# [3] = biodistribution study, circulation in blood of colon 33 tumor bearing mice; assay type: in vivo; conditions: Example 7, i.v. 0.2 ml/animal
# Method: (§4) A nanoparticulate formulation of 5% w/v […] in 3% polyoctylphenol (Tyloxopol) was prepared by ten days roller milling following the procedures similar to that of Example 9.
# (§5) A biodistribution study of the treatment of Example 5 was conducted by iv injections into colon 33 tumor bearing mice at 0.2 ml/animal. […] No dead mice were reported during the 48 hours treatment.
# as §3
# [4] = blood pool imaging, vascular x-ray contrast by CT after intravenous injection; assay type: in vivo, New Zealand White rabbits; conditions: 3 ml/kg via ear vein, CT at 5, 15, 30, 60, 120 min and 24 hours
# Method: as §2
# [5] = tumor tissue concentration after iv injection in mice bearing colon 33 tumor; assay type: in vivo; conditions: mouse, colon 33 tumor tissue, iv; for Cmax at 6 h: read-out: maximum drug concentration in tumor tissue; for Tmax: read-out: time of maximum drug concentration in tumor tissue
# Method: as §4
# (§6) The formulation was administered to mice bearing colon 33 tumor by iv injection. Analysis of the tumor tissue indicated the presence of WIN 67591 in the tumor tissue as soon as 5 minutes after injection. The drug concentration reached a maximum of 90 μg/g of tumor tissue at 6 hours and maintained at a concentration of 60 μg/g of tumor tissue for 42 hours.
# as §3
# [6] = tested on: colon 33 tumor tissue; assay: as above; assay type: in vivo
# Method: as §4, §6, §3
# [7] = mortality in biodistribution study in colon 33 tumor bearing mice; assay type: in vivo; conditions: iv 0.2 ml/animal; during 48 hours treatment
# Method: as §4, §5
# [8] = tested on: axillary nodes; assay: lymphography, CT imaging of axillary nodes after subcutaneous injection; assay type: in vivo, New Zealand White Rabbits; conditions: 4 hours post injection, single 0.5 ml subcutaneous dose, dorsal side of forepaw
# Method: as §1
compound,measurement,setting,value
COc1cc2oc(=O)cc(COC(=O)c3c(I)c(NC(C)=O)c(I)c(NC(C)=O)c3I)c2cc1OC [WIN 67591],average particle size,"[1]; 2% Tetronic 908 and 1% SA9OHCO, roller milled 7 days, light scattering, Zetasizer III",192 nm
same,average particle size by PCS,"[1]; 5% W/V with 3% Tyloxapol, roller milling ten days",302 nm
same,average particle size,"[1]; 5.2% Tetronic 908 in sterilized distilled water, rolled 7 days",173 nm
same,solubility,"[2]; in water, conjugates, read-out: solubility in water",< 10 µg/mL
same,amount remaining circulating in the blood,[3]; 1 hour post injection,700 µg
same,share of total dosage remaining circulating in the blood,[3]; 1 hour post injection,0.7%
same,blood circulation,[3],prolonged blood circulation
same,prolonged vascular residence time,[4],> 2 h
same,Cmax at 6 h,"[5]; Example 7, at 6 hour post injection, i.v. 0.2 ml/animal",90000 ng/g
same,concentration at 48 h,"[5]; Example 7, for 48 hours, i.v. 0.2 ml/animal, read-out: concentration maintained in tumor tissue",60000 ng/g
same,Tmax,"[5]; Example 7, i.v. 0.2 ml/animal",6 h
same,Cmax at 6 h,"[5]; Example 5, at 6 hours",90000 ng/g
same,concentration at 42 h,"[5]; Example 5, for 42 hours, read-out: concentration maintained in tumor tissue",60000 ng/g
same,Tmax,[5]; Example 5,6 h
same,time for which tumor concentration of 60 μg/g was maintained,"[6]; Example 5, iv",42 h
same,tumor tissue concentration versus average therapeutic dosage of oncologics,"[6]; Example 5, iv",exceeds the average therapeutic dosage of oncologics
same,time at which drug is present in tumor tissue,"[6]; Example 5, iv, 5% w/v in 3% Tyloxapol",≤ 5 min
same,time at which drug is detected in tumor tissue,"[6]; Example 7, HPLC, i.v. 0.2 ml/animal",≤ 5 min
same,time for which tumor concentration of 60 ug/g was maintained,"[6]; Example 7, i.v. 0.2 ml/animal",48 h
same,dead mice,[7],No dead mice
same,enhancement of the axillary nodes (CT),[8],clear enchancement of the axillary nodes
sodium methoxy coumarin,water solubility,[2]; water,> 1000 µg/mL
"CC(=O)Nc1c(I)c(NC(C)=O)c(I)c(C(=O)O)c1I [sodium ditriazoate, sodium diatrizoate, reference compound]",solubility,"[2]; in water, starting materials, read-out: water solubility",> 1000 µg/mL
COc1ccc2c(COC(=O)c3c(I)c(NC(C)=O)c(I)c(NC(C)=O)c3I)cc(=O)oc2c1 [WIN 67638],solubility,[2]; water,< 10 µg/mL
